Tests used:
hIL-6 mRNA = test: Inhibition of hIL-6 mRNA transcription in LPS-stimulated U937 macrophages; assay type: cell-based, human; parameters: key: Active: Compounds with an IC50 value less than 30 μM were deemed to be active.; Not Active: Compounds with an IC50 value less than 30 μM were deemed to be active; conditions: U937 cells differentiated with PMA, LPS stimulation, 3 h
Procedure: In this example, hIL-6 mRNA in tissue culture cells was quantitated to measure the transcriptional inhibition of hIL-6 when treated with a compound of the present disclosure.
A human leukemic monocyte lymphoma cell line (U937) was plated (3.2×10^4 cells per well) in a 96-well plate in 100 μL RPMI-1640 containing 10% FBS and penicillin/streptomycin, and differentiated into macrophages for 3 days in 60 ng/mL PMA ([…]) at 37° C. in 5% CO2 prior to the addition of the compound of interest. The cells were pretreated for 1 h with the test compound prior to stimulation with 1 ug/mL lipopolysaccharide from Escherichia coli. The cells were incubated at 37° C. for 3 h before the cells were harvested. At time of harvest, the spent media was removed from the cells and the cells were rinsed in 200 μL PBS. Cell lysis solution (70 μL) was added the cells in each well and incubated for 5-10 min at room temperature, to allow for complete cell lysis and detachment. mRNA was then prepared using the “mRNA Catcher PLUS plate” (Invitrogen), according to the protocol supplied. After the last wash, as much wash buffer as possible was aspirated without allowing the wells to dry. Elution buffer (E3, 70 μL) was then added to each well. mRNA was then eluted by incubating the mRNA Catcher PLUS plate with Elution Buffer for 5 min at 68° C. and then immediately placing the plate on ice.
The eluted mRNA isolated was then used in a one-step quantitative real-time PCR reaction, using components of the Ultra Sense Kit together with Applied Biosystems primer-probe mixes. Real-time PCR data was analyzed, normalizing the Ct values for hIL-6 to an internal control, prior to determining the fold induction of each unknown sample, relative to the control.

c-myc in MV4-11 cells = test: Inhibition of c-myc expression in cancer cell lines (mRNA, real-time PCR); assay type: cell-based, Human; parameters: key: Active: Compounds with an IC50 value less than 30 μM were deemed to be active.; Not Active: Compounds with an IC50 value less than 30 μM were deemed to be active; conditions: 3 h
Procedure, shortened: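 Duplex RT-qPCR of c-myc against cyclophilin cDNA gave IC50 from a dose–response curve. Input was isolated mRNA from 2.5×10^4 MV4-11 cells after 3 h exposure at 37 °C to compound or 0.1% DMSO vehicle.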

[1] = biological target: T1, Brd4 bromodomain 1 (BRD4(1)) (Homo sapiens, UniProt O60885); test: Inhibition of tetra-acetylated histone H4 binding to BET bromodomains (TR-FRET); parameters: key: Active: Compounds with an IC50 value less than 30 μM were deemed to be active.; Not Active: Compounds with an IC50 value less than 30 μM were deemed to be active; conditions: first bromodomain of Brd4, tetra-acetylated histone H4 peptide
T1 construct: made in house; host or cells: E. coli BL21(DE3)
Procedure, shortened: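 N-terminally His-tagged bromodomain (200 nM) from E. coli was mixed with biotinylated tetra-acetylated histone H4 peptide (25-50 nM), Eu-streptavidin and XL665 anti-His, plus compound, in HEPES pH 7.4 buffer with 0.2% DMSO. After 2 h at room temperature, the 665/620 nm TR-FRET decrease gave IC50 from dose-response curves.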

human AML MV-4-11 cells = test: Inhibition of cell proliferation in cancer cell lines (CellTiter Aqueous One); assay type: cell-based; parameters: key: Active: Compounds with an IC50 value less than 30 μM were deemed to be active.; Not Active: Compounds with an IC50 value less than 30 μM were deemed to be active; conditions: 72 h
Procedure, shortened: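 IC50 values come from blank-corrected proliferation relative to DMSO controls, read as 490 nm absorbance 3–4 h after CellTiter Aqueous One addition. Before that, cells seeded at 5×10^4/well were exposed for 72 h (37° C, 5% CO2) to triplicate two-fold compound dilutions spanning 30–0.2 μM.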

hApoA-1 mRNA = test: Up-regulation of hApoA-1 mRNA transcription in Huh7 cells; assay type: cell-based, human; parameters: key: Active: Compounds with an EC170 value less than 30 μM were deemed to be active; conditions: 48 h treatment
Procedure: In this example, ApoA-I mRNA in tissue culture cells was quantitated to measure the transcriptional up-regulation of ApoA-I when treated with a compound of the present disclosure.
Huh7 cells (2.5×10^5 per well) were plated in a 96-well plate using 100 μL DMEM per well, (Gibco DMEM supplemented with penicillin/streptomycin and 10% FBS), 24 h before the addition of the compound of interest. After 48 h treatment, the spent media was removed from the Huh-7 cells and placed on ice (for immediate use) or at −80° C. (for future use) with the “LDH cytotoxicity assay Kit II” from Abcam. The cells remaining in the plate were rinsed with 100 μL PBS.
Then 85 μL of cell lysis solution was added to each well and incubated for 5-10 min at room temperature, to allow for complete cell lysis and detachment. mRNA was then prepared using the “mRNA Catcher PLUS plate” from Life Technologies, according to the protocol supplied. After the last wash, as much wash buffer as possible was aspirated without allowing the wells to dry. Elution Buffer (E3, 80 μL) was then added to each well. mRNA was then eluted by incubating the mRNA Catcher PLUS plate with Elution Buffer for 5 min at 68° C., and then 1 min at 4° C. Catcher plates with mRNA eluted were kept on ice for use or stored at −80° C.
The eluted mRNA isolated was then used in a one-step real-time PCR reaction, using components of the Ultra Sense Kit together with Life Technologies primer-probe mixes. Real-time PCR data was analyzed, using the Ct values, to determine the fold induction of each unknown sample, relative to the control (that is, relative to the control for each independent DMSO concentration).
Compounds with an EC170 value less than 30 μM were deemed to be active.

Q: With COc1ccc(-c2nc3cc(OC)cc(OC)c3c(=O)[nH]2)c(NC2CCN(C)CC2)c1 [Example 1, 5,7-Dimethoxy-2-(4-methoxy-2-((1-methylpiperidin-4-yl)amino)phenyl)-quinazolin-4(3H)-one] as the molecule, how does the melting point read?
A: 252 to 253 °C

Q: What about the “IL-6 activity (IC50 < 30 μM)” value (hIL-6 mRNA) of the same molecule?
A: Active

Q: And the “c-myc activity (IC50 < 30 μM)” value (c-myc in MV4-11 cells)?
A: Active

Q: What about the “FRET activity BRD4(1)” value [1] of the same molecule?
A: Active

Q: And the “Cell Proliferation activity (IC50 < 30 μM)” value (“Cell Proliferation activity” below) (human AML MV-4-11 cells)?
A: Active

Q: And the “ApoA-1 activity (EC170 < 30 μM)” value (hApoA-1 mRNA)?
A: Active

Q: What does the source list for COc1ccc(-c2nc3cc(OC)cc(OC)c3c(=O)[nH]2)c(NCCN2CCN(C)CC2)c1 [Example 25, 5,7-Dimethoxy-2-(4-methoxy-2-((2-(4-methylpiperazin-1-yl)ethyl)amino)phenyl)-quinazolin-4(3H)-one]?
A: melting point: 230 to 231 °C; IL-6 activity (IC50 < 30 μM) (hIL-6 mRNA): Active; FRET activity BRD4(1) [1]: Active; ApoA-1 activity (EC170 < 30 μM) (hApoA-1 mRNA): Active

Q: With COc1cc(OC)c2c(=O)[nH]c(-c3ncccc3NC3CCN(C(=O)C(C)C)CC3)nc2c1 [Example 36, 2-(-((1-Isobutyrylpiperidin-4-yl)amino)pyridin-2-yl)-5,7-dimethoxyquinazolin-4(3H)-one] as the molecule, how does the “IL-6 activity (IC50 < 30 μM)” value (hIL-6 mRNA) read?
A: Active

Q: What about the “c-myc activity (IC50 < 30 μM)” value (c-myc in MV4-11 cells) of the same molecule?
A: Active

Q: What about the “FRET activity BRD4(1)” value [1] of the same molecule?
A: Active

Q: And the “Cell Proliferation activity” value (human AML MV-4-11 cells)?
A: Active

Q: What about the “ApoA-1 activity (EC170 < 30 μM)” value (hApoA-1 mRNA) of the same molecule?
A: Active

Q: What does the source list for COc1cc(OC)c2c(=O)[nH]c(-c3ncccc3NC3CCN(C(=O)C(C)(C)C)CC3)nc2c1 [Example 48, 5,7-Dimethoxy-2-(3-((1-pivaloylpiperidin-4-yl)amino)pyridin-2-yl)quinazolin-4(3H)-one]?
A: melting point: 209 to 210 °C; IL-6 activity (IC50 < 30 μM) (hIL-6 mRNA): Active; c-myc activity (IC50 < 30 μM) (c-myc in MV4-11 cells): Active; FRET activity BRD4(1) [1]: Active; Cell Proliferation activity (IC50 < 30 μM) (human AML MV-4-11 cells): Active

Q: What does the source list for COc1cc(OC)c2c(=O)[nH]c(-c3ncccc3NC3CCN(C(=O)C(=O)N(C)C)CC3)nc2c1 [Example 51, 2-(4-((2-(5,7-Dimethoxy-4-oxo-3,4-dihydroquinazolin-2-yl)pyridin-3-yl)amino)piperidin-1-yl)-N,N-dimethyl-2-oxoacetamide]?
A: melting point: 261 to 262 °C; IL-6 activity (IC50 < 30 μM) (hIL-6 mRNA): Active; c-myc activity (IC50 < 30 μM) (c-myc in MV4-11 cells): Active; FRET activity BRD4(1) [1]: Active; Cell Proliferation activity (IC50 < 30 μM) (human AML MV-4-11 cells): Active

Q: For CCNC(=O)N1CCC(Nc2cccnc2-c2nc3cc(OC)cc(OC)c3c(=O)[nH]2)CC1 [Example 52, 4-((2-(5,7-dimethoxy-4-oxo-3,4-dihydroquinazolin-2-yl)pyridin-3-yl)amino)-N-ethylpiperidine-1-carboxamide], which melting point is on record?
A: 151 to 152 °C

Q: What about the “IL-6 activity (IC50 < 30 μM)” value (hIL-6 mRNA) of the same molecule?
A: Active

Q: And the “c-myc activity (IC50 < 30 μM)” value (c-myc in MV4-11 cells)?
A: Active

Q: What about the “FRET activity BRD4(1)” value [1] of the same molecule?
A: Active

Q: And the “Cell Proliferation activity” value (human AML MV-4-11 cells)?
A: Not Active

Q: Which melting point does the source give for COC(=O)C(=O)N1CCC(Nc2cccnc2-c2nc3cc(OC)cc(OC)c3c(=O)[nH]2)CC1 [Example 55, Methyl-2-(4-((2-(5,7-dimethoxy-4-oxo-3,4-dihydroquinazolin-2-yl)pyridin-3-yl)amino)piperidin-1-yl)-2-oxoacetate] here?
A: 165 to 166 °C

Q: What about the “IL-6 activity (IC50 < 30 μM)” value (hIL-6 mRNA) of the same molecule?
A: Active

Q: And the “c-myc activity (IC50 < 30 μM)” value (c-myc in MV4-11 cells)?
A: Active

Q: And the “FRET activity BRD4(1)” value [1]?
A: Active

Q: What about the “Cell Proliferation activity” value (human AML MV-4-11 cells) of the same molecule?
A: Active

Q: Which results are given for COc1cc(OC)c2c(=O)[nH]c(-c3ncccc3NCCNC(=O)C(C)C)nc2c1 [Example 56, N-(2-((2-(5,7-Dimethoxy-4-oxo-3,4-dihydroquinazolin-2-yl)pyridin-3-yl)amino)ethyl)isobutyramide]?
A: melting point: 235 to 237 °C; IL-6 activity (IC50 < 30 μM) (hIL-6 mRNA): Active; c-myc activity (IC50 < 30 μM) (c-myc in MV4-11 cells): Active; FRET activity BRD4(1) [1]: Active; Cell Proliferation activity (IC50 < 30 μM) (human AML MV-4-11 cells): Active

Q: Which melting point does the source give for COc1cc(OC)c2c(=O)[nH]c(-c3ncccc3NCCCNC(=O)C(C)C)nc2c1 [Example 57, N-(3-((2-(5,7-Dimethoxy-4-oxo-3,4-dihydroquinazolin-2-yl)pyridin-3-yl)amino)propyl)isobutyramide] here?
A: 230 to 231 °C

Q: What about the “IL-6 activity (IC50 < 30 μM)” value (hIL-6 mRNA) of the same molecule?
A: Active

Q: What about the “c-myc activity (IC50 < 30 μM)” value (c-myc in MV4-11 cells) of the same molecule?
A: Active

Q: What about the “FRET activity BRD4(1)” value [1] of the same molecule?
A: Active

Q: And the “Cell Proliferation activity” value (human AML MV-4-11 cells)?
A: Not Active

Q: With COc1cc(OC)c2c(=O)[nH]c(-c3ncccc3NC3CCN(C(=O)C(C)O)CC3)nc2c1 (stereo not drawn) [Example 60, 2-(3-((1-(2-hydroxypropanoyl)piperidin-4-yl)amino)pyridin-2-yl)-5,7-dimethoxyquinazolin-4(3H)-one] as the molecule, how does the melting point read?
A: 290 to 291 °C

Q: What about the “IL-6 activity (IC50 < 30 μM)” value (hIL-6 mRNA) of the same molecule?
A: Active

Q: What about the “c-myc activity (IC50 < 30 μM)” value (c-myc in MV4-11 cells) of the same molecule?
A: Active

Q: What about the “FRET activity BRD4(1)” value [1] of the same molecule?
A: Active

Q: And the “Cell Proliferation activity” value (human AML MV-4-11 cells)?
A: Active

Q: For COc1cc(OC)c2c(=O)[nH]c(-c3ncc(OCCO)cc3NC3CCN(C(=O)C(C)C)CC3)nc2c1 [Example 64, 2-[5-(2-Hydroxyethoxy)-3-(1-isobutyroylpiperidin-4-ylamino)pyridin-2-yl]-5,7-dimethoxyquinazolin-4(3H)-one], which melting point is on record?
A: 173 to 176 °C

Q: And the “IL-6 activity (IC50 < 30 μM)” value (hIL-6 mRNA)?
A: Active

Q: And the “c-myc activity (IC50 < 30 μM)” value (c-myc in MV4-11 cells)?
A: Active

Q: What about the “FRET activity BRD4(1)” value [1] of the same molecule?
A: Active

Q: And the “Cell Proliferation activity” value (human AML MV-4-11 cells)?
A: Active

Q: For CCNc1cc(OC)c2c(=O)[nH]c(-c3ncccc3NC3CCN(C(C)C)CC3)nc2c1 [Example 69, 7-(Ethylamino)-2-(3-((1-isopropylpiperidin-4-yl)amino)pyridin-2-yl)-5-methoxyquinazolin-4(3H)-one], which melting point is on record?
A: 219 to 221 °C

Q: What about the “IL-6 activity (IC50 < 30 μM)” value (hIL-6 mRNA) of the same molecule?
A: Active

Q: And the “c-myc activity (IC50 < 30 μM)” value (c-myc in MV4-11 cells)?
A: Active

Q: What about the “FRET activity BRD4(1)” value [1] of the same molecule?
A: Active

Q: And the “Cell Proliferation activity” value (human AML MV-4-11 cells)?
A: Active

— patent publication US10500209B2, “Quinazolinones as bromodomain inhibitors” (Zenith Epigenetics Ltd., priority 2013, dated 2019)
